System: primary breast cancer (hormone receptor positive or unknown)
Type: in vivo, postmenopausal women
Experimental: The study was a phase III randomized double-blind placebo-controlled study of letrozole in postmenopausal women with primary breast cancer completing five years of adjuvant tamoxifen. Patients were allocated to receive either letrozole 2.5 mg or placebo once daily by mouth for five years. Stratification factors at randomization were tumor receptor status (positive, unknown), lymph node status at diagnosis (negative, positive or unknown) and prior adjuvant chemotherapy (yes, no). The primary objective was disease-free survival (DFS). Secondary endpoints included overall survival (OS)(all cause mortality), contralateral breast cancer occurrence, quality of life and long term clinical and laboratory safety with special attention paid to cardiovascular morbidity and mortality and bone fractures. Adverse events were assessed by the NCI Common Toxicity Criteria version 2.0. Quality of life was assessed using the SF-36 and Menopause-Specific Quality of Life questionnaires. Companion studies assessed lipid profiles and changes in bone density.
Premenopausal women who were <50 years at the start of treatment with tamoxifen but who became amenorrheic during the course of adjuvant chemotherapy or during their treatment with tamoxifen and who remained so throughout the ensuing years of tamoxifen treatment and women with LH/FSH levels within post-menopausal limits were also eligible. Other eligibility included: histologically confirmed invasive breast cancer; tumor receptor positive or unknown (ER and/or PgR positive defined as a tumour receptor content of ≧10 fmol/mg protein, or receptor positive by ERICA or PgRICA); tamoxifen discontinued <3 months prior to enrolment; ECOG performance status 0,1 or 2 and a life expectancy of >5 years. […] Ineligibility included: concurrent use of investigational drugs; prior or concurrent malignancy other than skin cancer or carcinoma in situ of the cervix.
Concomitant medications prohibiting enrolment included: systemic hormone replacement therapy or SERMS (selective estrogen receptor modulators). Intermittent use of vaginal estrogens was permitted.
All study participants were randomised. Study medication began within 5 working days of randomisation. Clinical evaluation, routine blood work, toxicity evaluation and mammography (annually only) occurred six monthly in year one and annually thereafter. Serious toxicities and deaths were reported within 24 hours. Treatment was discontinued for: serious intercurrent illness, unacceptable toxicity, disease recurrence and patient request. SF-36 and Menqol questionnaires were completed by a subset of patients at each visit. Fasting lipid samples and bone mineral density evaluations occurred in sub-sets of participants on the bone and lipid companion studies. Recurrence of disease was defined histologically, cytologically or by clinical and/or radiologic suspicion and dated by the first time of detection. Management of recurrent cancer was at the discretion of the treating physician. Patients developing any second malignancy other than non-melanoma skin cancer or carcinoma in-situ of the cervix had to discontinue study therapy.
Interim analyses and other decisions regarding early termination of the study were referred to an independent Data and Safety Monitoring Committee (DSMC) consisting of clinicians, patient representatives and statisticians who reviewed the study twice a year.
Disease free survival, defined as the time from randomization to the time of recurrence of the primary disease (in the breast, chest wall, nodal or metastatic sites) or development of contralateral breast cancer, was the primary endpoint of the study. The sample size calculation assumed a 4 year disease free survival of 88% for patients on the placebo arm and a hazard ratio of 1.28, which represents 2.5% improvement in 4 year disease free survival from 88% to 90.5%. […]

[1] = among 207 events at first analysis

## N#Cc1ccc(C(c2ccc(C#N)cc2)n2cncn2)cc1 [letrozole]
95% confidence interval from 0.85 to 2.17, stratified two sided log-rank p 0.20
  hazard ratio of patients on placebo versus those on letrozole for OS: 1.36
95% confidence interval from 1.33 to 2.34, stratified two sided log-rank p 0.000077
  hazard ratio of placebo to letrozole for DFS: 1.76
After five years of treatment with tamoxifen
  effect on breast cancer recurrence and new primary tumors (in words): markedly reduced breast cancer recurrance and new primary tumors
[1]
  women who developed both contralateral breast cancer and metastatic disease: 2 women
  women who developed contralateral breast cancer only: 14 women
  women with metastatic disease recurrence only: 59 women
At the time of the first analysis
  patients coming off study because of progressive disease: 44 patients
female, human, in vivo
  patients coming off study because of toxicity: 115 patients
In vivo
  toxicity profile (in words): very favorable toxicity profile
Letrozole 2.5 mg once daily by mouth after five years of adjuvant tamoxifen, first interim analysis, 95% confidence interval from 90% to 95%
  4 year disease free survival (DFS): 93%
Letrozole 2.5 mg once daily, first interim analysis, 95% confidence interval from 94% to 98%
  4 year overall survival (OS): 96%
Of 72 deaths in total, 2593 randomized to letrozole
  patients who had died at the time of data cut-off: 30 patients

From patent publication US20050080062A1, “Breast cancer treatment regimen” (priority 2003, published 2005)
